Test results as given in paper PMC10208276, “A Very Long-acting Exatecan and Its Synergism with DNA Damage Response Inhibitors” (Cancer Research Communications, 2023).
“Also recorded” adds a separate entry of the source. Like-named read-outs stand apart in the source and are kept apart here.

Key:
[1] = cited from earlier work
tumor cells = system: tumor cells; parameters: method as in PMID 12234607; conditions: cited from earlier work
drug-efflux pumps = conditions: cited from earlier work
[2] = system: BRCA1-deficient MX-1 TNBC xenografts; parameters: method as in PMID 9685056; conditions: total dose of 25 and 75 mg (57 and 170 μmol)/kg, four times at 4-day intervals, at 28 days; cited from earlier work
[3] = system: BRCA1-deficient MX-1 TNBC xenografts; assay: Antitumor activity of PEG-Exa in the MX-1 murine xenograft, alone and combined with TLZ or VX970; format: in vivo, female scid mice
Excerpt: Animals were housed at Murigenics.
To assess the interaction of the drug combination, we used an additivity index determined as TGcalc/TGobsd where […] and TGcalc is the product of TGobsd values of the individual drugs. Here, an index <1 indicates infra-additive, an index of 1 indicates additivity and an index >1 indicates a supra-additive or synergistic interaction.
We measured the effects of a combination of PEG-Exa with the PARPi TLZ and the ATRi VX970 on growth of MX-1 xenografts. […] To assess the interaction of a drug combination, we used an additivity index ([28]) determined as TGcalc/TGobsd where TGcalc is the product of TGobsd values of the individual drugs and TGobsd is the observed tumor growth in the presence of both drug. Here, an index <1 indicates infra-additive, an index of 1 indicates additivity and an index >1 indicates a supra-additive or synergistic interaction.

[4] = system: patient-derived triple-negative breast cancer (TNBC) xenografts; parameters: method as in PMID 32075943; conditions: cited from earlier work
[5] = system: relapsed small cell lung cancer; parameters: method as in PMID 33848478; conditions: combination of topotecan with the ATRi VX-970, 5-day interval of a 21-day cycle; cited from earlier work
[6] = VX970 64 μmol/kg PO, 4 consecutive days a week, alone
[7] = single intraperitoneal doses of 10 and 15 μmol/kg

Compound: CC[C@@]1(O)C(=O)OCc2c1cc1n(c2=O)Cc2c-1nc1cc(F)c(C)c3c1c2[C@@H](N)CC3 [Exa, exatecan]
- t1/2 ([1]; in humans): approximately 10 hours
- increase of inhibitory potency upon prolonged exposure (tumor cells): about 80 fold
- substrate for drug-efflux pumps (drug-efflux pumps): does not appear to be a substrate
- effect on MX-1 TNBC xenografts [2]: regression

Compound: CCc1c2c(nc3ccc(O)cc13)-c1cc3c(c(=O)n1C2)COC(=O)[C@]3(O)CC [SN-38]
- apparent t1/2 ([1]; SN-38 formed from CPT-11): approximately 12 hours

Compound: Cn1ncnc1[C@H]1c2n[nH]c(=O)c3cc(F)cc(c23)N[C@@H]1c1ccc(F)cc1 [TLZ, talazoparib]
- TGobsd ([3]; 0.4 μmol (0.15 mg)/kg orally every day, Fig. 4A): 0.71

Compound: CNCc1ccc(-c2cc(-c3nc(-c4ccc(S(=O)(=O)C(C)C)cc4)cnc3N)on2)cc1 [VX970]
- AUC of median MX-1 Tumor volume ([3]; VX970 16 μmol/kg alone): 0.98 Fraction of vehicle control
- AUC of median MX-1 Tumor volume ([3]; VX970 32 μmol/kg alone): 0.96 Fraction of vehicle control
- TGI [3, 6]: 0
- TGobsd, AUC of median MX-1 Tumor volume [3, 6]: 1.04 Fraction of vehicle control
- effect on growth of MX-1 xenografts ([3]; VX970 alone, 64 μmol/kg for 4 consecutive days a week): do not affect tumor growth; also recorded: no effect

Compound: CCc1c2c(nc3ccc(OC(=O)N4CCC(N5CCCCC5)CC4)cc13)-c1cc3c(c(=O)n1C2)COC(=O)[C@]3(O)CC [irinotecan]
- responsive xenografts ([4]; xenografts containing both biomarkers): 100%
- response rate ([4]; xenografts with BRCAness): 50%
- response rate ([4]; xenografts with high SLFN11): 75%

Compound: CC[C@@]1(O)C(=O)OCc2c1cc1n(c2=O)Cc2cc3c(CN(C)C)c(O)ccc3nc2-1 [topotecan]
- ORR [5]: 36%

Compound: PEG40kDa-[exatecan]4 (Mod = 4-Cl-C6H4-SO2-) [3A]
- potency in growth suppression relative to PLX038A (PEG-SN-38) ([3]; […] PEG-Exa nearly identical to 15 μmol/kg PLX038A): approximately 6 fold
- dose lower than dose of free Exa required to suppress MX-1 xenografts ([3]; single 10 μmol/kg versus total 57 μmol/kg free Exa (ref 26)): 6 fold
- dose lower than dose of free Exa required to suppress MX-1 xenografts ([3]; single 10 μmol/kg versus total 170 μmol/kg free Exa (ref 26)): 18 fold
- duration of tumor growth suppression ([3]; single dose of 10 μmol/kg): over 40 days
- tumor growth of MX-1 xenografts ([3]; single dose of 10 μmol/kg): complete suppression of tumor growth
- duration of complete growth inhibition [3, 7]: > 48 days
- growth of tumors [3, 7]: complete growth inhibition
